Measurements published in publication PMC12040169 (PLOS Biology, 2025).

Assay: in vitro
Conditions: human, hela cells

Structure (SMILES)	viability at 28.5 h, 10 µM (% viability)	also measured
CCOC(=O)C1(C2CCCCC2)CCN(C(=O)CC2CCCCC2)CC1 [CBK136919]	96.2%	–
CCOC(=O)C1(C2CCCCC2)CCN(C(=O)c2ccc(OC(F)(F)F)cc2)CC1 [CBK136921]	96.2%	–
CCOC(=O)C1(C2CCCCC2)CCN(C(=O)/C=C/c2ccc3c(c2)OCO3)CC1 [CBK136924]	92.8%	–
CCOC(=O)C1(C2CCCCC2)CCN(C(=O)COc2ccccc2OC)CC1 [CBK136928]	96.7%	–
CCOC(=O)C1(C2CCCCC2)CCN(C(=O)CC2NC(=O)NC2=O)CC1 (centres unmarked) [CBK136938]	100%	–
CCOC(=O)C1(C2CCCCC2)CCN(C(=O)CCC(=O)O)CC1 [CBK136939]	95.9%	–
CS(=O)(=O)N1CC2(CCN(Cc3cccc4cccnc34)CC2)c2ccccc21 [CBK136955]	93.2%	–
CS(=O)(=O)N1CC2(CCN(Cc3ccc4nsnc4c3)CC2)c2ccccc21 [CBK136957]	92.9%	–
CCNC(=O)N1CC2(CCN(CCc3cccc4ccccc34)CC2)c2ccccc21 [CBK136965]	94.7%	–
CCNC(=O)N1CC2(CCN(CCCC#N)CC2)c2ccccc21 [CBK136970]	111%	–
CCNC(=O)N1CC2(CCN(CCOCC)CC2)c2ccccc21 [CBK136972]	90.5%	–
CC(C)C(=O)N1CC2(CCN(CCc3cccc4ccccc34)CC2)c2ccccc21 [CBK136978]	101%	–
CCN1CC2(CCN(Cc3c(F)cccc3F)CC2)c2ccccc21 [CBK136986]	94%	–
CCN1CC2(CCN(CC3CC3)CC2)c2ccccc21 [CBK136987]	92.6%	–
CCN1CC2(CCN(CCCN(C)C)CC2)c2ccccc21 [CBK136988]	84.5%	–
CCN1CC2(CCN(CCCC#N)CC2)c2ccccc21 [CBK136995]	91.1%	–
NC(=O)CN1CC2(CCN(Cc3cccc4cccnc34)CC2)c2ccccc21 [CBK137021]	123%	–
O=C(c1cccc(C(F)(F)F)c1)N1CCCC2(CCN(Cc3ccccc3)C2)C1 (centres unmarked) [CBK137039]	90.4%	–
O=C(c1cc(F)c(F)cc1F)N1CCC2(CCCNC2)C1 (centres unmarked) [CBK137068T]	87%	–
O=C(Cc1nnn[nH]1)N1CCCC2(CCN(C(=O)c3ccoc3)C2)C1 (centres unmarked) [CBK137077]	91.8%	–
COc1ccc(C(=O)N2CCC3(CCCN(C(=O)c4ccc5[nH]c(=O)[nH]c5c4)C3)C2)cc1OC (centres unmarked) [CBK137086]	98.5%	–
Cc1ccc(S(=O)(=O)CC(=O)N2CCCC3(CCN(Cc4ccccc4)C3)C2)cc1 (centres unmarked) [CBK137098T]	90.7%	–
CCOC(=O)C1(C2CCCCC2)CCN(C(=O)c2cc(C)[nH]n2)CC1 [CBK137100]	96.2%	–

Structure (SMILES)	viability at 28.5 h, 10 µM (% viability)	also measured
CCOC(=O)C1(C2CCCCC2)CCN(C(=O)c2cscn2)CC1 [CBK137101]	82.1%	–
CCOC(=O)C1(C2CCCCC2)CCN(C(=O)c2ccc(S(N)(=O)=O)cc2)CC1 [CBK137105]	93.2%	–
O=c1[nH]c2ccccc2n1CCCN1CCC[C@@H]1CN1CCCC1 [CBK137111T]	93.5%	–
CCOC(=O)C1(c2ccccc2)CCN(C(=O)CC(C)(C)N)CC1 [CBK137117]	–	viability at 28.5 h, 10 µM (% viability, bulk resorufin, single well): 96.6%
O=C(O)CCN1CCCC2(CCN(C(=O)Cc3c[nH]c4ccccc34)C2)C1 (centres unmarked) [CBK137138]	114%	–
COc1ccc(C(=O)N2CCC3(CCCN(CCc4c[nH]c5ccccc45)C3)C2)cc1OC (centres unmarked) [CBK137143]	89.9%	–
O=C(c1ccc2[nH]ccc2c1)N1CCC2(CCN(Cc3ccccc3)C2)C1 (centres unmarked) [CBK137146]	98.5%	–
CN(C)C(=O)Oc1cc(CN2CCCC2)c2ccn(S(=O)(=O)c3ccccc3)c2c1 [CBK137151T]	–	viability at 28.5 h, 10 µM: 101%
O=C(Cc1ccsc1)N1CCC2(CCCNC2)C1 (centres unmarked) [CBK137153C]	85.4%	–
O=C(CC1CCCCC1)N1CCC2(CCCNC2)C1 (centres unmarked) [CBK137154C]	91.5%	–
O=C(c1ccc(OC(F)(F)F)cc1)N1CCC2(CCCNC2)C1 (centres unmarked) [CBK137156C]	87.7%	–
Nc1nccn(CCOc2cc(F)c(F)cc2F)c1=O [CBK138204T]	92.6%	–
CC(=O)Nc1ccc(-c2ccc(COC3CCN(C(=O)OC(C)(C)C)CC3)cc2)cc1 [CBK138215]	99.8%	–
CN1CCC(COC(=O)Nc2cccnc2)CC1 [CBK138232]	108%	–
Cc1cc(C)nc(NC(=O)OCCc2cccnc2)c1 [CBK138234]	95.1%	–
Cc1cc(C)nc(NC(=O)OCCN2CCN(C)CC2)c1 [CBK138235]	92.2%	–
Cc1ncccc1COC(=O)Nc1cccnc1 [CBK138237]	94.3%	–
NC(=O)CCN1CCC(Cc2ccccc2)CC1 [CBK138317]	117%	–
O=c1[nH]c2ccccc2n1CCCN1CCC(Cc2ccccc2)CC1 [CBK138318]	104%	–
COc1cc2c(cc1OC)CN(CC1CCCCC1)CC2 [CBK138321]	101%	–
COc1cc2c(cc1OC)CN(CCO)CC2 [CBK138322]	108%	–
c1ccc(CCN2CCN(Cc3ncc[nH]3)CC2)cc1 [CBK138328]	120%	–
c1ccc2c(c1)CCCN2Cc1nc2ccccc2[nH]1 [CBK138329]	107%	–

Structure (SMILES)	viability at 28.5 h, 10 µM (% viability)	also measured
c1ccc2c(c1)CCCN2CCc1c[nH]c2ccccc12 [CBK138330]	97.3%	–
O=c1cc(CN2CCCc3ccccc32)[nH]c(=O)[nH]1 [CBK138331]	95.1%	–
c1ccc2c(c1)CCCN2Cc1ncc[nH]1 [CBK138332]	89.2%	–
COc1ccc(Cl)cc1N1CCN(CC2CCCCC2)CC1 [CBK138336]	77.8%	–
c1ccc(CCN2CCN(CC3COc4ccccc4O3)CC2)cc1 (centres unmarked) [CBK138342]	86%	–
NC(=O)CN1CCCc2ccccc21 [CBK138343]	90%	–
COc1ccc(CCC(=O)Nc2cccc(OCCC3CCNCC3)c2)cc1OC [CBK138350]	95.6%	–
COc1cc(CC(=O)Nc2cccc(-c3ccc(OC4CCNCC4)cc3)n2)cc(OC)c1OC [CBK138351]	83.4%	–
CC(C)[C@@]1(C)SC(N[C@H]2C[C@H]3C[C@@H]2C[C@@H]3O)=NC1=O [CBK138400]	102%	–
C[C@H](NC1=NC(=O)[C@@](C)(C(C)(C)O)S1)c1ccc(F)cc1 [CBK138436]	98.1%	–
CC(=O)Nc1cccc(-c2cnc(NCc3ccc4c(c3)OCO4)c(C(=O)NCC3COc4ccccc4O3)c2)c1 (centres unmarked) [CBK138473T]	116%	–
Nc1ccc(-c2cnc(NCc3ccc4c(c3)OCO4)c(C(=O)Nc3ccc4c(c3)OCCO4)c2)cc1 [CBK138480T]	106%	–
Nc1ncc(-c2ccc(C(=O)N3CCOCC3)cc2)nc1-c1ccc(Cl)s1 [CBK138510]	93.6%	–
CC(C)CCC(=O)Nc1ccc(N2CCN(C(=O)c3ccccc3C(F)(F)F)CC2)nn1 [CBK138629]	100%	–
Cn1c(=O)[nH]c(=O)c2c1nc(N/N=C/c1cc(Br)ccc1O)n2CCO [CBK139415]	97.8%	–
CC(C)OCC(O)Cn1c(N/N=C/c2ccccc2O)nc2c1c(=O)[nH]c(=O)n2C (centres unmarked) [CBK139853]	101%	–
Cn1c(=O)c2c(nc(NCc3ccccc3)n2C)n(C)c1=O [CBK139872]	95.9%	–
CC(C)n1c(NCc2ccccc2)nc2c1c(=O)n(C)c(=O)n2C [CBK140094]	78.2%	–
Fc1ccc(C(c2nnnn2C2CCCCC2)N2CCCCC2)cc1 (centres unmarked) [CBK141670]	94.9%	–
CN1CCN(C(c2cccs2)c2nnnn2C(C)(C)C)CC1 (centres unmarked) [CBK141702]	91.9%	–
Cc1ccc(C)c(-n2nnnc2SCC(=O)c2ccc(Cl)cc2Cl)c1 [CBK141941]	98.1%	–
CCOc1ccc(-n2nnnc2SCC(=O)c2ccc(Cl)c(Cl)c2)cc1 [CBK141942]	88.7%	–
O=C(Nc1ccccc1C(F)(F)F)NC1CC2CCCC(C1)N2C1CC1 (centres unmarked) [CBK143578]	103%	–

Structure (SMILES)	viability at 28.5 h, 10 µM (% viability)	also measured
O=C(NCc1ccccc1)c1ccc2nc[nH]c2c1 [CBK143739]	91.9%	–
CC(C)C(=O)N1CC2(CCN(CC3COc4ccccc4O3)CC2)c2ccccc21 (centres unmarked) [CBK143946]	98.2%	–
O=C(CO)N1CC2(CCN(CC3COc4ccccc4O3)CC2)c2ccccc21 (centres unmarked) [CBK143951]	105%	–
OCCN1CC2(CCN(CC3COc4ccccc4O3)CC2)c2ccccc21 (centres unmarked) [CBK143955]	86.7%	–
NC(=O)CN1CC2(CCN(CC3COc4ccccc4O3)CC2)c2ccccc21 (centres unmarked) [CBK143960]	89.4%	–
CCN(CCCCC1NC(=O)NC1=O)Cc1ccncc1 (centres unmarked) [CBK143967]	89.1%	–
CS(=O)(=O)c1ccc(CN2CCC3(CCN(Cc4ccccc4)CC3)C2)cc1 [CBK144066T]	92.2%	–
Cc1onc(-c2ccccc2)c1CNC(=O)CC1CC1 [CBK144072]	85.4%	–
Cc1onc(-c2ccccc2)c1CNC(=O)c1ccco1 [CBK144074]	90.5%	–
Cc1cc(C(=O)NCc2c(-c3ccccc3)noc2C)n[nH]1 [CBK144076]	91.4%	–
Cc1onc(-c2ccccc2)c1CNC(=O)[C@@H]1CCCN1C [CBK144077]	89.8%	–
Cc1onc(-c2ccccc2)c1CNC(=O)CC1CCCCC1 [CBK144078]	89.1%	–
Cc1onc(-c2ccccc2)c1CNC(=O)c1cccc(C(F)(F)F)c1 [CBK144079]	93.6%	–
Cc1cc(CC(=O)NCc2c(-c3ccccc3)noc2C)on1 [CBK144090]	92.2%	–
CSCCC(=O)NCc1c(-c2ccccc2)noc1C [CBK144092]	85.9%	–
Cc1onc(-c2ccccc2)c1CNC(=O)Cn1cc(C)c(=O)[nH]c1=O [CBK144094]	87.6%	–
COc1cc(C(=O)NCc2c(-c3ccccc3)noc2C)cc(OC)c1OC [CBK144097]	93.9%	–
Cc1onc(-c2ccccc2)c1CNC(=O)c1cncnc1 [CBK144098]	90.6%	–
CC1(C)CC(=O)c2sc(NC(=O)C3COc4ccccc4O3)nc2C1 (centres unmarked) [CBK144104]	112%	–
CC1(C)CC(=O)c2sc(NC(=O)c3ccc(Oc4ccccc4)cc3)nc2C1 [CBK144106]	95.5%	–
